According to patent US20240197874A1, “MATERIALS AND METHODS FOR IMPROVING EFFICACY OF ADOPTIVE IMMUNE CELL THERAPY” (priority 2021, published 2024):

Assays:
[1] = tested on: mTORC1; assay: Endosome isolation and in vitro mTORC1 kinase activity assay toward S6K1; assay type: biochemical, human; details: cells pre-treated 2 hours with 1 μM inhibitor; day 3
[2] = tested on: Naïve CD4 T cells; assay: DQ-BSA lysosomal activity assay in activated naïve CD4 T cells; assay type: cell-based, human
Procedure: Cells were treated with 5 μg/mL of DQ-BSA (D12050, Thermo Fisher Scientific) diluted in prewarmed medium and incubated at 37° ° C. for 6 hours. Cells were then briefly washed once with ice-cold PBS containing 2% FBS and kept on ice. Fluorescence of cleaved BSA-DQ was analyzed by flow cytometry.

[3] = tested on: Naïve CD4 T cells; assay: Percentage of live cells (Annexin V negative) of activated naïve CD4 T cells with increasing inhibitor doses; assay type: cell-based, human; details: for toxicity of doses used for lysosome inhibition: chloroquine 20 μM, Bafilomycin A1 10 nM
Procedure: FIGS. 2A-2H. Naïve CD4 T cells from old adults lose lysosomal function but maintain mTORC1 activity after activation on day 5. (FIG. 2A and FIG. 2B) Naïve CD4 T cells from young and old individuals were activated with anti-CD3/anti-CD28 beads for 5 days followed by DQBSA treatments for 6 hours. Fluorescence of cleaved DQ-BSA was analyzed by flow cytometry to determine lysosome activities (FIG. 2A). Phospho-S6K1 (Thr389) protein expression (right) was determined by Western blotting (FIG. 2B). (FIG. 2C) Naïve CD4 T cells were activated for 5 days in the presence of increasing doses of chloroquine (CQ), bafilomycin A1 (BafA1) or JPH203. The percentage of live cells was determined as the frequency of Annexin V negative population. Mean+SD of four experiments. (FIGS. 2D-2G) Naïve CD4 T cells were activated for 5 days with the last 2-day culture with vehicle, chloroquine (CQ) or bafilomycin A1 (BafA1). Alternatively, cells were transfected with control or TFEB siRNA and activated for 5 days. (FIG. 2D) Lysosomal activities were determined as in (FIG. 2A). (FIG. 2E) mTORC1 activity was determined as in (FIG. 2B). (FIG. 2F) TFEB protein silencing were confirmed by Western blotting on day 5 after activation. (FIG. 2G) AKT phosphorylation was determined by Western blotting on day 5 after activation. **p<0.01; NS, not significant. (FIG. 2H) Naïve CD4 T cells from three old individuals were activated and treated with CQ as in (FIG. 2D). SLC7A5 and c-MYC protein expression were determined. Comparison by two-tailed paired t test. *p<0.05, **p<0.01; NS, not significant.
Isolated human naïve CD4 T cells were activated with Dynabeads Human T-Activator CD3/CD28 (11132D, Thermo Fisher Scientific) in RPMI 1640 (Sigma) supplemented with 10% fetal bovine serum (FBS) and 100 U/mL penicillin and streptomycin (Thermo Fisher Scientific). Mouse T cells were activated in plates coated with 8 μg/mL anti-CD3 Ab (16-0032-82, eBioscience) and 8 μg/mL anti-CD28 Ab (16-0281-82, eBioscience) in culture medium supplemented with 10 ng/ml IL-2 (21212, Peprotech). […]

[4] = tested on: mTORC1; assay type: cell-based, human; details: for S6K1 phosphorylation (mTORC1 activity) under lysosome inhibition: young individuals, day 5, last 2 days with inhibitor
[5] = tested on: lysosomal cathepsin genes (CTSB, CTSD, CTSH and CTSS); assay: Lysosomal cathepsin gene expression by qRT-PCR; assay type: cell-based, human
Procedure: FIGS. 6A-6F. Sustained activation of late endosomal mTORC1 suppresses lysosomal activities in naïve CD4 T cell responses. (FIGS. 6A-6F) Naïve CD4 T cells from young (Y) and old (O) individuals were activated for 5 days. Indicated inhibitor or vehicle control was added for the last 2 days of culture (FIGS. 6A-6B and FIGS. 6E-6F). Alternatively, cells were transfected with control or VPS39 siRNA and then activated with anti-CD3/anti-CD28 beads for 5 days (FIGS. 6C-6D). (FIG. 6A, FIG. 6C, FIG. 6E, and FIG. 6F) Lysosomal cathepsins expressions were determined by qRT-PCR (left); results are normalized to control samples using 18S rRNA as internal control; mean+SD of four experiments; comparison by two-tailed paired t-test. Lysosomal activities were determined by flow cytometry-based analysis of cells treated with 5 μg/mL of DQ-BSA for 6 hours. Results are shown as representative histograms (middle) and cumulative data from four experiments (right, two-tailed paired t-test). The gray histogram represents DQ-BSA free samples. […]
Total RNA was isolated using the RNeasy Plus Mini Kit (74134, QIAGEN) and converted to cDNA using the SuperScript VILO cDNA Synthesis Kit (11754, Invitrogen). Quantitative RT-PCR was performed on the ABI 7900HT system (Applied Biosystems) using Power SYBR Green PCR Master Mix (4368706, Thermo Fisher Scientific), according to the manufacturer's instructions.

[6] = tested on: PD-1; assay type: cell-based, human; details: T cells from old adults; day 5
[7] = young individuals, day 5, last 2 days with inhibitor
[8] = CQ and JPH203-cotreated young cells vs CQ alone
[9] = day 5-activated T cells from old adults

Structure (SMILES): Cl.Cl.NC1(c2ccc(-c3nc4ccn5c(=O)[nH]nc5c4cc3-c3ccccc3)cc2)CCC1 [AKT inhibitor, MK-2206 2HCl]
- mTORC1 kinase activity of endosome isolates toward the substrate S6K1 [1]: not seen

Structure (SMILES): CO/C1=C\C(C)=C\[C@@H](C)[C@@H](O)[C@@H](C)C/C(C)=C/C=C/[C@H](OC)[C@@H]([C@@H](C)[C@@H](O)[C@H](C)[C@@]2(O)C[C@@H](O)[C@H](C)[C@@H](C(C)C)O2)OC1=O [Bafilomycin A1]
- lysosomal activities [2, 7]: reduced lysosomal activities
- toxicity of doses used for lysosome inhibition [3]: nontoxic
- S6K1 phosphorylation (mTORC1 activity) under lysosome inhibition [4]: neither reduced S6K1

Structure (SMILES): Nc1cc(COc2c(Cl)cc(C[C@H](N)C(=O)O)cc2Cl)c2oc(-c3ccccc3)nc2c1 [JPH203]
- lysosomal activities [2, 8]: increased
- lysosomal cathepsins [5, 8]: increased
- cytotoxicity (percentage of live cells, Annexin V negative) ([3]; 5 μM, titration experiments, activated naïve CD4 T cells): not cytotoxic
- inhibition of mTORC1 activity ([4]; 5 μM, phosphorylation of S6RP, titration experiments): about 50%
- mTORC1 activity on day 3 ([4]; day 3 after activation, young and old cells, 5 μM): reduced mTORC1 activity in both young and old cells
- excess mTORC1 activity on day 5 in old activated T cells ([4]; day 5, old adults, inhibitor for last 2 days, 5 μM): sensitive to SLC7A5 inhibition

Structure (SMILES): CCC(=O)N1CCN(c2ccc(-n3c(=O)ccc4cnc5ccc(-c6cnc7ccccc7c6)cc5c43)cc2C(F)(F)F)CC1 [Torin 1]
- cell surface protein expression of PD-1 [6]: reduced cell surface protein expression
- transcripts of PD-1 [6]: without effects on transcripts
- lysosomal proteolytic activities [2, 9]: partially restored
- TFEB-dependent transcription of lysosomal cathepsin genes [5, 9]: partially restored

Structure (SMILES): CCN(CC)CCCC(C)Nc1ccnc2cc(Cl)ccc12 (centres unmarked) [chloroquine, Chloroquine]
- lysosomal activities [2, 7]: reduced lysosomal activities
- toxicity of doses used for lysosome inhibition [3]: nontoxic
- S6K1 phosphorylation (mTORC1 activity) under lysosome inhibition [4]: neither reduced S6K1
